Experiment [1] has as its target T1, 2091A (XynA inserted in XBP at position 209).
T1 construct: gene xylF; single polypeptide: XBP to A209, linker AG, XynA (1-185), linker GGA, XBP from residue 210; pET28a, E. coli Rosetta (DE3), Ni-NTA (His tag not described); with Endo-1,4-beta-xylanase A
Kind of experiment: intrinsic tryptophan fluorescence titration. The experiment is classed as binding, Escherichia coli. The note with it: 20 mM Hepes pH 7.5, 25 °C; 3 µM protein; XBP domain site, allosteric activator of xylanase.

Experiment [2] deals with T2, parental XBP (xylose binding protein, XylF) (Escherichia coli, UniProt P37387).
T2 construct: full XBP expressed in E. coli Rosetta (DE3) and purified; vector, tag and signal peptide of the purified parental XBP not described
T2 sequence (P37387 24-330): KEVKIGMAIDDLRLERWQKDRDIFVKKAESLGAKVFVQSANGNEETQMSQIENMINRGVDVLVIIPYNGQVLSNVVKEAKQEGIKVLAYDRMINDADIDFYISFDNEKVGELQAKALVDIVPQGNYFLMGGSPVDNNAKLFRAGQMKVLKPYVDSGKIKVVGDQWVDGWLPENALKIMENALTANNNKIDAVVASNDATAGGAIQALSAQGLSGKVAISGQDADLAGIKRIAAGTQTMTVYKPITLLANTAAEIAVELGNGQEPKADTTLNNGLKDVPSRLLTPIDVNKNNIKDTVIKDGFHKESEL
Kind of experiment: intrinsic tryptophan fluorescence titration. The note with it: 20 mM Hepes pH 7.5, 25 °C; 3 µM protein.

Experiment [3] has as its target T3, 2621B (XynA inserted in XBP at position 262).
T3 construct: gene xylF; single polypeptide: XBP to Q262, linker GGGG, XynA (1-185), linker GA, XBP from residue 263; pET28a, E. coli Rosetta (DE3), Ni-NTA (His tag not described); with Endo-1,4-beta-xylanase A
The experiment can be described thus: intrinsic tryptophan fluorescence titration. The note with it: 20 mM Hepes pH 7.5, 25 °C; 3 µM protein; XBP domain site, allosteric activator of xylanase. The class given is binding, Escherichia coli.

Experiment [4] addresses T4, parental XynA (Bacillus subtilis, UniProt P18429).
T4 construct: GH11 xylanase, mature 185 residues; activity ratio measured in culture supernatants
Kind of experiment: RBB-xylan hydrolysis by culture supernatant, dye release at […] nm. The note with it: 1% (m/v) D-xylose; acetate pH 5.5, 37 °C; product inhibition. The experiment is classed as biochemical.

The structures appear in SMILES notation.

`OC1OC[C@@H](O)[C@H](O)[C@H]1O` (stereo partly drawn) [D-xylose]: the Kd (usually a measure of binding affinity in units of concentration) amounted to 150 ± 20 nM in experiment [1], 140 ± 30 nM in experiment [2] and 160 ± 10 nM in experiment [3]. Also, the “+xyl/-xyl ratio^a” value in experiment [4] is on record as 0.80 ± 0.04.

The values are drawn from paper PMC4536891, “Insertion of a xylanase in xylose binding protein results in a xylose-stimulated xylanase” (Biotechnology for Biofuels, 2015).
